The values that follow come from patent publication US9738848B2, “Polyfunctional lubricant composition” (priority 2013, dated 2017).

The subject of data set [1] is Larval medaka (Oryzias latipes). To be noted: cited from earlier work.
The nature of data set [2]: Hydrolyzability test (acid value after storage with water). The following applies: 1 mass percent water, 60° C. The data set is classed as physicochemical. On the procedure:
1 Mass percent of water was added to phosphorus compounds and the mixture was stored in a thermostat at 60° C. The compounds were evaluated for hydrolyzability by measuring an acid value at each number of days elapsed.

The test system of a further data set is Rainbow trout. The following applies: cited from earlier work.

On to `O=P(Oc1ccccc1)(Oc1ccccc1)Oc1ccccc1` [Triphenyl phosphate], for which, in data set [1], the “Larval medaka (Oryzias latipes) acute toxicity 96h-LC50” value (from here on “Larval medaka”) was 1.3 µg/mL. Further, in data set [2], the “Hydrolyzability (acid value over days elapsed)” value is recorded as “high hydrolyzability”.
For Tricresyl phosphate, the “Larval medaka” value in data set [1] was 0.84 µg/mL.
For the molecule Triisopropyl phenyl phosphate, in the data set on Rainbow trout, the “Rainbow trout acute toxicity 96h-LC50” value was 1.6 µg/mL. Further, in data set [1], the “Larval medaka” value was more than 100 µg/mL.
